EP4650353A1 (Shanghai Institute of Materia Medica, Chinese Academy of …, priority 2023, dated 2024)
Read-outs that look alike come from different tables or passages of the source.

Target: T1, human GLP-1 receptor (Homo sapiens, UniProt P43220)
T1 construct: HA (N); expressed in transfected cells
Test: GLP-1 receptor-mediated agonist activity: cAMP level in hGLP-1R/HEK293 cell line (HTRF)
Type: cell-based

[1] = cAMP levels in hGLP-1R/HEK293 cell line, Table 1, read-out: determined EC50
[2] = cAMP levels of the hGLP-1R/HEK293 cell line, Table 2, comparison with reference compounds, read-out: EC50

T1 sequence (P43220 24-463): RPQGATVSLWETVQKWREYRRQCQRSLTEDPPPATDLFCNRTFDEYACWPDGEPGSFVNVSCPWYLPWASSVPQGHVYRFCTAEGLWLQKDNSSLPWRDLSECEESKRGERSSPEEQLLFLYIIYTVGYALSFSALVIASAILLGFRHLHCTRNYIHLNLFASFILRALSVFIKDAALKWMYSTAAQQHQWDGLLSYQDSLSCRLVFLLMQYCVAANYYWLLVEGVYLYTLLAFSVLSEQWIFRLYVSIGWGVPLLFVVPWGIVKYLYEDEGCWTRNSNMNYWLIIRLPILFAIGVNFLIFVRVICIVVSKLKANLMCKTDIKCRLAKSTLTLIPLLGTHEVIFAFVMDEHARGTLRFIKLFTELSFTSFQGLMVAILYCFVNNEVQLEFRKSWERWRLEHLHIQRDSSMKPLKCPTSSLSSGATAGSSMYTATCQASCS
Method: The hGLP-1R/HEK293 cells were digested, centrifuged and resuspended in culture medium (DMEM+0.2% BSA, m/v), and the cell density was adjusted to 2×10^5 cells/mL. IBMX (3-isobutyl-1-methylxanthine, final concentration of 0.5 mM) was added to the cell suspension and added to a 384-well plate at 5 µL (1×10^3 cells)/well. The compound was dissolved in DMSO to prepare a stock solution with a concentration of 10 mM. The experiment started with a concentration of 100 µM which was diluted 10 times in a series of 7 dilution points, with the 8th point being DMSO. 2 µL of the test compound of different concentrations was added to 98 µL of culture medium, shaken and mixed, 5 µL was taken and added to a 384-well plate (final concentration of the test compound was 0-100 nM, final concentration of DMSO was 1%, v/v), which was then incubated in the incubator (37°C, 5% CO2) in the dark for 30 min, then 10 µL of cAMP detection reagent (LANCE Ultra cAMP Detecion Kit, PerkinElmer, #TRF0264) was added, mixed well, and reacted at room temperature in the dark for 1 h. After the reaction was completed, the HTRF signal was read using the Envision 2104 multi-function microplate reader. All samples were tested in triplicate wells, and the ratio of the acceptor-donor excitation signal in each single well was calculated using the formula Ratio = Signal 665nM/Signal 620nM. The HTRF signal ratio and the corresponding compound concentration were analyzed and processed using GraphPad Prism 8 software, and the EC50 value of the compound was obtained by fitting the S-type dose-response curve and calculating.

| Structure (SMILES) | EC50 [1] [pM] | EC50 [2] [pM] |
| --- | --- | --- |
| CCOc1cc(C(=O)O)cc2c1nc(CN1CCC(c3cccc(OCc4ccc(C(F)(F)F)cc4OC)n3)CC1)n2C[C@@H]1CCO1 [Compound 52, (S)-4-ethoxy-2-((4-(6-((2-methoxy-4-(trifluoromethyl)benzyl)oxy)pyridin-2-yl)piperidin-1-yl)methyl)-1-(oxetan-2-ylmethyl)-1H-benzo[d]imidazole-6-carboxylic acid] | 1.2 | – |
| O=C(O)c1ccc2nc(CN3CCN(c4cccc(OCc5ccc(Cl)cc5F)n4)CC3)n(C[C@@H]3CCO3)c2c1 [WO2018109607 , Example 10A-08, reference compound] | – | 28.9 |
| O=C(O)c1ccc2nc(CN3CCC(c4cccc(OCc5ccc(Cl)cc5F)n4)CC3)n(C[C@@H]3CCO3)c2c1 [WO2018109607 , Example 3A-01, reference compound] | – | 32.7 |
| CCOc1cc(C(=O)O)cc2c1nc(CN1CCC(c3cccc4c3OC(C)(c3ccc(Cl)cc3F)O4)CC1)n2C[C@@H]1CCO1 (stereo partly drawn) [Compound 37, 2-((4-(2-(4-chloro-2-fluorophenyl)-2-methylbenzo[d][1,3]dioxol-4-yl)piperidin-1-yl)methyl)-4-ethoxy-1-(((S)-oxetan-2-yl)methyl)-1H-benzo[d]imidazole-6-carboxylic acid] | 6.7 | – |
| COc1cc(C#N)ccc1COc1ccccc1C1CCN(Cc2nc3c(OC)cc(C(=O)O)cc3n2C[C@@H]2CCO2)CC1 [Compound 44, (S)-2-((4-(2-((4-cyano-2-methoxybenzyl)oxy)phenyl)piperidin-1-yl)methyl)-4-methoxy-1-(oxetan-2-ylmethyl)-1H-benzo[d]imidazole-6-carboxylic acid] | 9.5 | – |
| COc1cc(C(=O)O)cc2c1nc(CN1CCC(c3cccc4c3OC(C)(c3ccc(Cl)cn3)O4)CC1)n2C[C@@H]1CCO1 (stereo partly drawn) [Compound 38, 2-((4-(2-(5-chloropyridin-2-yl)-2-methylbenzo[d][1,3]dioxol-4-yl)piperidin-1-yl)methyl)-4-methoxy-1-(((S)-oxetan-2-yl)methyl)-1H-benzo[d]imidazole-6-carboxylic acid] | 22.9 | – |
| CCOc1cc(C(=O)O)cc2c1nc(CN1CCN(c3cccc(OCc4ccc(C(F)(F)F)cc4F)n3)C=N1)n2C[C@@H]1CCO1 [Compound 24, (S)-4-ethoxy-2-((4-(6-((2-fluoro-4-(trifluoromethyl)benzyl)oxy)pyridin-2-yl)-5,6-dihydro-1,2,4-triazin-1(4H)-yl)methyl)-1-(oxetan-2-ylmethyl)-1H-benzo[d]imidazole-6-carboxylic acid] | 5.3 | – |
| CCOc1cc(C(=O)O)cc2c1nc(CN1CCN(c3cccc4c3OC(C)(c3ccc(C(F)(F)F)cn3)O4)C=N1)n2C[C@@H]1CCO1 (stereo partly drawn) [Compound 66, 4-ethoxy-2-((4-(2-methyl-2-(5-(trifluoromethyl)pyridin-2-yl)benzo[d][1,3]dioxol-4-yl)-5,6-dihydro-1,2,4-triazin-1(4H)-yl)methyl)-1-(((S)-oxetan-2-yl)methyl)-1H-benzo[d]imidazole-6-carboxylic acid] | 5.2 | – |
| CCOc1cc(C(=O)O)cc2c1nc(CN1CCN(c3cccc(OCc4ccc(Cl)cc4F)n3)C=N1)n2C[C@@H]1CCO1 [Compound 21, (S)-2-((4-(6-((4-chloro-2-fluorobenzyl)oxy)pyridin-2-yl)-5,6-dihydro-1,2,4-triazin-1(4H)-yl)methyl)-4-ethoxy-1-(oxetan-2-ylmethyl)-1H-benzo[d]imidazole-6-carboxylic acid] | 1 | – |
| COc1cc(C(=O)O)cc2c1nc(CN1CCC(c3ccccc3OCc3ccc(C#N)c4c3OCC4)CC1)n2C[C@@H]1CCO1 [Compound 46, (S)-2-((4-(2-((4-cyano-2,3-dihydrobenzofuran-7-yl)methoxy)phenyl)piperidin-1-yl)methyl)-4-methoxy-1-(oxetan-2-ylmethyl)-1H-benzo[d]imidazole-6-carboxylic acid] | 42.2 | – |
| COc1cc(C(=O)O)cc2c1nc(CN1CCN(c3cccc4c3OC(C)(c3ccc(Cl)cc3F)O4)CC1)n2C[C@@H]1CCO1 (stereo partly drawn) [Compound 40, 2-((4-(2-(4-chloro-2-fluorophenyl)-2-methylbenzo[d][1,3]dioxol-4-yl)piperazin-1-yl)methyl)-4-methoxy-1-(((S)-oxetan-2-yl)methyl)-1H-benzo[d]imidazole-6-carboxylic acid] | 11.1 | – |
| CCOc1cc(C(=O)O)cc2c1nc(CN1CCN(c3cccc4c3OC(C)(c3cc(F)c(Cl)cc3F)O4)C=N1)n2C[C@@H]1CCO1 (stereo partly drawn) [Compound 79, 2-((4-(2-(4-chloro-2,5-difluorophenyl)-2-methylbenzo[d][1,3]dioxol-4-yl)-5,6-dihydro-1,2,4-triazin-1(4H)-yl)methyl)-4-ethoxy-1-(((S)-oxetan-2-yl)methyl)-1H-benzo[d]imidazole-6-carboxylic acid] | 44.2 | – |
| COc1cc(C(=O)O)cc2c1nc(CN1CCC(c3cccc4c3OC(C)(c3ccc(C(F)(F)F)cn3)O4)CC1)n2C[C@@H]1CCO1 (stereo partly drawn) [Compound 55, 4-methoxy-2-((4-(2-methyl-2-(5-(trifluoromethyl)pyridin-2-yl)benzo[d][1,3]dioxol-4-yl)piperidin-1-yl)methyl)-1-(((S)-oxetan-2-yl)methyl)-1H-benzo[d]imidazole-6-carboxylic acid] | 25.2 | – |
| COc1cc(C(=O)O)cc2c1nc(CN1CCN(c3cccc(OCc4ccc(C#N)cc4F)n3)C=N1)n2C[C@@H]1CCO1 [Compound 8, (S)-2-((4-(6-((4-cyano-2-fluorobenzyl)oxy)pyridin-2-yl)-5,6-dihydro-1,2,4-triazin-1(4H)-yl)methyl)-4-methoxy-1-(oxetan-2-ylmethyl)-1H-benzo[d]imidazole-6-carboxylic acid] | 3.4 | – |
| N#Cc1ccc(COc2cccc(C3CCN(Cc4nc5c(F)cc(C(=O)O)cc5n4C[C@@H]4CCO4)CC3)n2)c(F)c1 [WO2022109182 , Example 21, reference compound] | – | 26.1 |
| CCOc1cc(C(=O)O)cc2c1nc(CN1CCC(c3cccc4c3OC(C)(c3ccc(C(F)(F)F)cn3)O4)CC1)n2C[C@@H]1CCO1 (stereo partly drawn) [Compound 56, 4-ethoxy-2-((4-(2-methyl-2-(5-(trifluoromethyl)pyridin-2-yl)benzo[d][1,3]dioxol-4-yl)piperidin-1-yl)methyl)-1-(((S)-oxetan-2-yl)methyl)-1H-benzo[d]imidazole-6-carboxylic acid] | 9.8 | – |
| COc1cc(Cl)ccc1C1(C)Oc2cccc(N3C=NN(Cc4nc5c(OC)cc(C(=O)O)cc5n4C[C@@H]4CCO4)CC3)c2O1 (stereo partly drawn) [Compound 83, 2-((4-(2-(4-chloro-2-methoxyphenyl)-2-methylbenzo[d][1,3]dioxol-4-yl)-5,6-dihydro-1,2,4-triazin-1(4H)-yl)methyl)-4-methoxy-1-(((S)-oxetan-2-yl)methyl)-1H-benzo[d]imidazole-6-carboxylic acid] | 9.2 | – |
| COc1cc(C(=O)O)cc2c1nc(CN1CCC(c3cccc(OCc4ccc(C(F)(F)F)cc4F)n3)CC1)n2C[C@@H]1CCO1 [Compound 27, (S)-2-((4-(6-((2-fluoro-4-(trifluoromethyl)benzyl)oxy)pyridin-2-yl)piperidin-1-yl)methyl)-4-methoxy-1-(oxetan-2-ylmethyl)-1H-benzo[d]imidazole-6-carboxylic acid] | 8.7 | – |
